# According to ChEMBL document CHEMBL4828717, “Synthetic cajaninstilbene acid derivatives eradicate methicillin-resistant Staphylococcus aureus persisters and biofilms” (Eur J Med Chem, 2021):
# Activity calls are given as the source filed them. The rule behind the calls is not given here.
# How the values were obtained:
# [1] = Toxicity in BALB/c mouse infected with methicillin-resistant Staphylococcus aureus ATCC 43300 assessed as damage in spleen at 50 to 100 mg/kg, sc administered every 24 hrs for 4 days by H&E staining based light microscopic analysis; assay type: organism-based; settings: in vivo, dose 50-100 mg/kg
# [2] = Toxicity in BALB/c mouse infected with methicillin-resistant Staphylococcus aureus ATCC 43300 assessed as damage in lung at 50 to 100 mg/kg, sc administered every 24 hrs for 4 days by H&E staining based light microscopic analysis; assay type: organism-based; settings: in vivo, dose 50-100 mg/kg
# [3] = Toxicity in BALB/c mouse infected with methicillin-resistant Staphylococcus aureus ATCC 43300 assessed as damage in heart at 50 to 100 mg/kg, sc administered every 24 hrs for 4 days by H&E staining based light microscopic analysis; assay type: organism-based; settings: in vivo, dose 50-100 mg/kg
# [4] = Toxicity in BALB/c mouse infected with methicillin-resistant Staphylococcus aureus ATCC 43300 assessed as damage in liver at 50 to 100 mg/kg, sc administered every 24 hrs for 4 days by H&E staining based light microscopic analysis; assay type: organism-based; settings: in vivo, dose 50-100 mg/kg
# [5] = Toxicity in BALB/c mouse infected with methicillin-resistant Staphylococcus aureus ATCC 43300 assessed as damage in kidney at 50 to 100 mg/kg, sc administered every 24 hrs for 4 days by H&E staining based light microscopic analysis; assay type: organism-based; settings: in vivo, dose 50-100 mg/kg
# Staphylococcus aureus [6] = experiment: Antibacterial activity against methicillin resistant Staphylococcus aureus ATCC 43300 persisters assessed as reduction in colony formation at 40 ug/ml incubated for 8 hrs by colony counting method; assay type: functional, organism-based; settings: dose 40.0 µg/ml
# Pseudomonas aeruginosa = experiment: Antibacterial activity against Pseudomonas aeruginosa ATCC27853 assessed as reduction in microbial growth after 16 to 18 hrs by microbroth dilution method; assay type: functional; settings: time 16-18 hrs
# Staphylococcus aureus [7] = experiment: Antibacterial activity against methicillin resistant Staphylococcus aureus ATCC513045 assessed as reduction in microbial growth after 16 to 18 hrs by microbroth dilution method; assay type: functional; settings: time 16-18 hrs
# [8] = (§1) Cytotoxicity against mouse RAW264.7 cells assessed as cell viability at 10 ug/ml measured after 24 hrs by MTT assay; assay type: cell-based; settings: RAW264.7 cells, at 10 µg/mL, read-out: Activity
# Staphylococcus aureus [9] = experiment: Antibacterial activity against methicillin resistant Staphylococcus aureus ATCC48073 assessed as reduction in microbial growth after 16 to 18 hrs by microbroth dilution method; assay type: functional; settings: time 16-18 hrs
# Staphylococcus aureus [10] = experiment: Antibacterial activity against methicillin resistant Staphylococcus aureus ATCC49008 assessed as reduction in microbial growth after 16 to 18 hrs by microbroth dilution method; assay type: functional; settings: time 16-18 hrs
# Staphylococcus aureus [11] = experiment: Antibacterial activity against methicillin resistant Staphylococcus aureus ATCC 43300 assessed as reduction in microbial growth after 16 to 18 hrs by microbroth dilution method; assay type: functional; settings: time 16-18 hrs
# Staphylococcus aureus [12] = experiment: Antibacterial activity against methicillin resistant Staphylococcus aureus ATCC 62202 assessed as reduction in microbial growth after 16 to 18 hrs by microbroth dilution method; assay type: functional; settings: time 16-18 hrs
# Staphylococcus aureus [13] = experiment: Antibacterial activity against methicillin resistant Staphylococcus aureus ATCC49800 assessed as reduction in microbial growth after 16 to 18 hrs by microbroth dilution method; assay type: functional; settings: time 16-18 hrs
# Staphylococcus aureus [14] = experiment: Antibacterial activity against methicillin resistant Staphylococcus aureus ATCC 52056 assessed as reduction in microbial growth after 16 to 18 hrs by microbroth dilution method; assay type: functional; settings: time 16-18 hrs
# L02 = experiment: Cytotoxicity against human L02 cells assessed as cell viability at 10 ug/ml measured after 24 hrs by MTT assay; assay type: cell-based; settings: l02, 24 h, dose 10 µg/ml
# Staphylococcus aureus [15] = experiment: Antibacterial activity against methicillin resistant Staphylococcus aureus ATCC515992 assessed as reduction in microbial growth after 16 to 18 hrs by microbroth dilution method; assay type: functional; settings: time 16-18 hrs
# Escherichia coli = experiment: Antibacterial activity against Escherichia coli ATCC25922 assessed as reduction in microbial growth after 16 to 18 hrs by microbroth dilution method; assay type: functional; settings: ATCC 25922, time 16-18 hrs
# Staphylococcus aureus [16] = experiment: Antibacterial activity against Staphylococcus aureus ATCC 25923 assessed as reduction in microbial growth after 16 to 18 hrs by microbroth dilution method; assay type: functional; settings: time 16-18 hrs
# Staphylococcus aureus [17] = experiment: Antibacterial activity against methicillin resistant Staphylococcus aureus ATCC48966 assessed as reduction in microbial growth after 16 to 18 hrs by microbroth dilution method; assay type: functional; settings: time 16-18 hrs
# Enterococcus faecalis = experiment: Antibacterial activity against Enterococcus faecalis ATCC29212 assessed as reduction in microbial growth after 16 to 18 hrs by microbroth dilution method; assay type: functional; settings: ATCC 29212, time 16-18 hrs
# Staphylococcus aureus [18] = experiment: Antibacterial activity against methicillin resistant Staphylococcus aureus ATCC48706 assessed as reduction in microbial growth after 16 to 18 hrs by microbroth dilution method; assay type: functional; settings: time 16-18 hrs
# Staphylococcus aureus [19] = experiment: Antibacterial activity against methicillin resistant Staphylococcus aureus ATCC49025 assessed as reduction in microbial growth after 16 to 18 hrs by microbroth dilution method; assay type: functional; settings: time 16-18 hrs
# RAW264.7 = experiment: as §1; assay type: cell-based; settings: raw264.7, 24 h, dose 10 µg/ml
Structure (SMILES),MIC (Pseudomonas aeruginosa) [µg/mL],MIC (Staphylococcus aureus [7]) [µg/mL],MIC (Staphylococcus aureus [9]) [µg/mL],MIC (Staphylococcus aureus [10]) [µg/mL],MIC (Staphylococcus aureus [11]) [µg/mL],MIC (Staphylococcus aureus [12]) [µg/mL],MIC (Staphylococcus aureus [13]) [µg/mL],MIC (Staphylococcus aureus [14]) [µg/mL],Activity (L02),MIC (Staphylococcus aureus [15]) [µg/mL],MIC (Escherichia coli) [µg/mL],MIC (Staphylococcus aureus [16]) [µg/mL],MIC (Staphylococcus aureus [17]) [µg/mL],MIC (Enterococcus faecalis) [µg/mL],MIC (Staphylococcus aureus [18]) [µg/mL],MIC (Staphylococcus aureus [19]) [µg/mL],Activity (RAW264.7),further results
CN[C@H](CC(C)C)C(=O)N[C@H]1C(=O)N[C@@H](CC(N)=O)C(=O)N[C@H]2C(=O)N[C@H]3C(=O)N[C@H](C(=O)N[C@H](C(=O)O)c4cc(O)cc(O)c4-c4cc3ccc4O)[C@H](O)c3ccc(c(Cl)c3)Oc3cc2cc(c3O[C@@H]2O[C@H](CO)[C@@H](O)[C@H](O)[C@H]2O[C@H]2C[C@](C)(N)[C@H](O)[C@H](C)O2)Oc2ccc(cc2Cl)[C@H]1O [VANCOMYCIN],–,–,–,–,–,–,–,–,–,–,–,–,–,–,–,–,–,Activity [1]: Non-Toxic; Activity [2]: Non-Toxic; Activity [3]: Non-Toxic; Activity [4]: Non-Toxic; Activity [5]: Non-Toxic
CCCCCCCCCC(=O)N[C@@H](Cc1c[nH]c2ccccc12)C(=O)N[C@H](CC(N)=O)C(=O)N[C@@H](CC(=O)O)C(=O)N[C@@H]1C(=O)NCC(=O)N[C@@H](CCCN)C(=O)N[C@@H](CC(=O)O)C(=O)N[C@H](C)C(=O)N[C@@H](CC(=O)O)C(=O)NCC(=O)N[C@H](CO)C(=O)N[C@@H]([C@H](C)CC(=O)O)C(=O)N[C@@H](CC(=O)c2ccccc2N)C(=O)O[C@@H]1C,–,–,–,–,–,–,–,–,–,–,–,–,–,–,–,–,–,Activity (Staphylococcus aureus [6]): inactive
O=C(O)c1cn(C2CC2)c2cc(N3CCNCC3)c(F)cc2c1=O,–,–,–,–,–,–,–,–,–,–,–,–,–,–,–,–,–,Activity (Staphylococcus aureus [6]): inactive
CO[C@H]1/C=C/O[C@@]2(C)Oc3c(C)c(O)c4c(O)c(c(/C=N/N5CCN(C)CC5)c(O)c4c3C2=O)NC(=O)/C(C)=C\C=C\[C@H](C)[C@H](O)[C@@H](C)[C@@H](O)[C@@H](C)[C@H](OC(C)=O)[C@@H]1C,–,–,–,–,–,–,–,–,–,–,–,–,–,–,–,–,–,Activity (Staphylococcus aureus [6]): inactive
CC(C)=CCc1c(OC2CCOCC2)cc(/C=C/c2ccc(F)cc2)c(C(=O)O)c1O,> 32,16,16,16,1,32,16,8,Toxic,32,> 32,16,16,> 32,16,16,–,"viability at 24 h, 10 ug/ml [8]: > 60%"
CC(C)=CCc1c(OC2CCCC2)cc(/C=C/c2ccc(F)cc2)c(C(=O)O)c1O,> 32,2,4,4,2,2,4,2,Toxic,2,> 32,2,4,> 32,4,4,Toxic,–
CC(C)=CCc1c(OC2CCC2)cc(/C=C/c2ccc(F)cc2)c(C(=O)O)c1O,> 32,2,2,2,2,4,2,2,Toxic,4,> 32,2,2,> 32,2,2,Toxic,–
CC(C)=CCc1c(OCCCCF)cc(/C=C/c2ccc(C(F)(F)F)cc2)c(C(=O)O)c1O,> 32,4,4,4,2,4,4,2,Toxic,2,> 32,4,4,> 32,4,4,Toxic,–
CCC(C)Oc1cc(/C=C/c2ccc(C(F)(F)F)cc2)c(C(=O)O)c(O)c1CC=C(C)C (configuration not stated),> 32,2,2,2,1,2,2,2,Toxic,2,> 32,2,2,> 32,2,2,Toxic,–
CC(C)=CCc1c(OCC2CC2)cc(/C=C/c2ccc(C(F)(F)F)cc2)c(C(=O)O)c1O,> 32,2,2,2,2,2,2,1,Toxic,2,> 32,1,2,> 32,2,2,Toxic,–
CCOc1cc(/C=C/c2ccc(F)cc2)c(C(=O)O)c(O)c1CC=C(C)C,> 32,4,4,4,2,4,8,2,Toxic,4,> 32,4,4,> 32,4,4,Toxic,–
